The target in assay [1] is T1, human bradykinin receptor 1 (B1R) (Homo sapiens, UniProt P46663).
T1 construct: expressed in transfected cells; host or cells: CHO K1 cells
T1 sequence (P46663 1-353): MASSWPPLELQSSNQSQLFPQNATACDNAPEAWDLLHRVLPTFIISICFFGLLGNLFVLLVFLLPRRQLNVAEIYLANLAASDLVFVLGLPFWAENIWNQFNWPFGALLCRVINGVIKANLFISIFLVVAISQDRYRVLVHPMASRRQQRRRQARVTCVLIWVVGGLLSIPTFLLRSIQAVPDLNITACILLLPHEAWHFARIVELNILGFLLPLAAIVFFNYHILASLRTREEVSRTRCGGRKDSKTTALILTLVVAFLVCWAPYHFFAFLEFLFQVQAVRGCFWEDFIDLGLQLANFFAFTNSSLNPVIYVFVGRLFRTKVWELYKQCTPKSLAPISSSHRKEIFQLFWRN
As to the kind of experiment: Functional study on the bradykinin receptor 1 (B1R), human: FLIPR Ca2+ influx assay. The class given is cell-based. The following applies: test substance 10 μM, CHO K1 cells transfected with human B1R, Lys-Des-Arg9-bradykinin at EC80, Ca2+ influx (Fluo-4, FLIPR); for inhibition at 10 µM: read-out: B1R antagonism, human [10 μM] % inhibition. In short, it runs like this:
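CHO K1 cells stably expressing human B1R were loaded with Fluo-4, and Ca2+ fluorescence was read on FLIPR (ex 488/em 540 nm). Compound was added first (10 μM for % activation against Lys-Des-Arg9-bradykinin ≥0.5 nM). After 10-20 min, Lys-Des-Arg9-bradykinin was added at EC80 for % inhibition; IC50 came from concentration series, n=2-3, N≥2.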

For assay [2], the target named is T2, bradykinin receptor 1 (B1R) of the rat (Rattus norvegicus, UniProt P97583).
T2 construct: expressed in transfected cells; host or cells: CHO K1 cells
T2 sequence (P97583 1-337): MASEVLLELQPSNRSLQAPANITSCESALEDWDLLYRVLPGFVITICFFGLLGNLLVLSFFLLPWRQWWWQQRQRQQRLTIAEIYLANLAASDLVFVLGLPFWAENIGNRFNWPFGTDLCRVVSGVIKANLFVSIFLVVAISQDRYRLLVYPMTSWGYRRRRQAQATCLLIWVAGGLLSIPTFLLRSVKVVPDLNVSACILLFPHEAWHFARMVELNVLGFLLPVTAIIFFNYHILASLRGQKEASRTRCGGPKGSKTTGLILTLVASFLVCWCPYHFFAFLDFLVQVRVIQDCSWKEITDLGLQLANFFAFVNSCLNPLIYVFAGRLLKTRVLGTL
As to the kind of experiment: Functional study on the bradykinin receptor 1 (B1R), rat: FLIPR Ca2+ influx assay. The class given is cell-based. The following applies: test substance 10 μM, CHO K1 cells transfected with rat B1R, Des-Arg9-bradykinin at EC80, Ca2+ influx (Fluo-4, FLIPR); for inhibition at 10 µM: read-out: B1R antagonism, rat [10 μM] % inhibition. In short, it runs like this:
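CHO K1 cells stably expressing rat B1R, Fluo-4-loaded, read on FLIPR (ex 488/em 540 nm, peak fluorescence). Test substances added first (agonism vs 10 μM Des-Arg9-bradykinin), then after 10-20 min Des-Arg9-bradykinin at EC80; % inhibition and IC50 from concentration series, n=2-3, N≥2.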

For another assay, the target named is T3, human μ-opiate receptor (Homo sapiens, UniProt P35372).
T3 construct: purchased PerkinElmer Life Sciences, Zaventem, Belgium RB-HOM; host or cells: CHO-K1 cells (membrane preparation)
Description: Affinity for the human μ-opiate receptor ([3H]-naloxone displacement, SPA). The following applies: test substance 1 μmol/l, inhibition of specific [3H]-naloxone binding, CHO-K1 receptor membrane preparation; for inhibition at 1 µM: read-out: μ-Opioid receptor [1 μM] % inhibition. In short, it runs like this:
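Membranes from CHO-K1 cells expressing human μ-opiate receptor were incubated 90 min at room temperature with 1 nmol/l [3H]-naloxone and WGA-SPA beads in 50 mmol/l Tris-HCl with 0.06% BSA; non-specific binding was defined with 100 μmol/l naloxone. Percent inhibition was measured at 1 μmol/l, IC50 was derived from concentration series, and Ki was obtained by Cheng-Prusoff.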

The record followed here is patent publication US8119633B2, “Substituted sulfonamide compounds” (Gruenenthal GmbH, priority 2007, dated 2012).

Usually inhibition stands for the relative decrease from the control value, in per cent.

T3 sequence (P35372 whole entry): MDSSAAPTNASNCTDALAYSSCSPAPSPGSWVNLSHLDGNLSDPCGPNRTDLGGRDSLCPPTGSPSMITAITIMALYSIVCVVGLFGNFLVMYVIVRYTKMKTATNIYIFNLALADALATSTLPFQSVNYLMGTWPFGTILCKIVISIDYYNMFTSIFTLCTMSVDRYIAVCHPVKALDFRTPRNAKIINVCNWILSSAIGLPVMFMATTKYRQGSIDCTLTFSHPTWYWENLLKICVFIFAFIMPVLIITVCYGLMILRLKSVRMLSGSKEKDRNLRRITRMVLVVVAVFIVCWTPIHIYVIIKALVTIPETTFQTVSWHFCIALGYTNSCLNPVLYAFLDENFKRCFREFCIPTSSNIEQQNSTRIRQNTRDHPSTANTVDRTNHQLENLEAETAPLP

Consider `O=C(CC1C(=O)Nc2ccccc2N1S(=O)(=O)c1ccc(Cl)c(Cl)c1)NCC1CCC(C(c2ccccc2)N2CCCC2)CC1` (stereo not drawn) [Example 67, 2-[1-(3,4-dichloro-benzenesulfonyl)-3-oxo-1,2,3,4-tetrahydro-quinoxalin-2-yl]-N-[4-(phenyl-pyrrolidin-1-yl-methyl)-cyclohexylmethyl]-acetamide], for which the inhibition at 10 µM in assay [1] and in assay [2] was 104% each time. The inhibition at 1 µM at human μ-opiate receptor came out at 64%.

For `O=C(CC1CCCCN1S(=O)(=O)c1ccc(Cl)c(Cl)c1)NCC1CCC(C(CCc2ccccc2)N2CCOCC2)CC1` (stereo not drawn) [Example 83, 2-[1-(3,4-dichloro-benzenesulfonyl)-piperidin-2-yl]-N-[4-(1-morpholin-4-yl-3-phenyl-propyl)-cyclohexylmethyl]-acetamide], the inhibition at 10 µM was 37% in assay [1] and -3% in assay [2]. Moreover, on human μ-opiate receptor, the inhibition at 1 µM worked out at 22%.

Regarding `O=C(CC1C(=O)Nc2ccccc2N1S(=O)(=O)c1ccc(Cl)c(Cl)c1)NC1CCC(C(CCc2ccccc2)N2CCOCC2)CC1` (stereo not drawn) [Example 69, 2-[1-(3,4-dichloro-benzenesulfonyl)-3-oxo-1,2,3,4-tetrahydro-quinoxalin-2-yl]-N-[4-(1-morpholin-4-yl-3-phenyl-propyl)-cyclohexyl]-acetamide], the results for the inhibition at 10 µM in assay [1] and in assay [2] were 105% and 19%, respectively. Also, at human μ-opiate receptor, the inhibition at 1 µM was 7%.

With `O=C(CC1C(=O)Nc2ccccc2N1S(=O)(=O)c1ccc(Cl)c(Cl)c1)NCC1CCC(C(c2ccccc2)N2CCOCC2)CC1` (stereo not drawn) [Example 64, 2-[1-(3,4-dichloro-benzenesulfonyl)-3-oxo-1,2,3,4-tetrahydro-quinoxalin-2-yl]-N-[4-(morpholin-4-yl-phenyl-methyl)-cyclohexylmethyl]-acetamide], the inhibition at 10 µM is 104% in assay [1] and 29% in assay [2]. Besides, the inhibition at 1 µM on human μ-opiate receptor stood at 10%.

As to `Cc1cc(S(=O)(=O)N2CCCCC2CCC(=O)N2CCC(C(c3cccc(F)c3)N3CCN(C)CC3)CC2)c(C)cc1Cl` (stereo not drawn) [Example 120, 3-(1-(4-chloro-2,5-dimethylphenylsulfonyl)piperidin-2-yl)-1-(4-((3-fluorophenyl)(4-methylpiperazin-1-yl)methyl)piperidin-1-yl)propan-1-one], the inhibition at 10 µM came out at 105% in assay [1] and 73% in assay [2]. In addition, on human μ-opiate receptor, the inhibition at 1 µM came out at 41%.

Take “1-(4-(1-(4-methylpiperazin-1-yl)-3-phenylpropyl)piperidin-1-yl)-2-(1-(3-(trifluoromethyl)phenylsulfonyl)piperidin-2-yl)ethanone [Example 112]”: in assay [1], the “B1R antagonism, human [10 μM] % inhibition” value was determined as 90%. Besides, the “B1R antagonism, rat [10 μM] % inhibition” value in assay [2] is 61%. Besides, the “μ-Opioid receptor [1 μM] % inhibition” value on human μ-opiate receptor came out at 28%.

Turning to `O=C(CC1C(=O)NCCN1S(=O)(=O)c1ccc(Cl)cc1Cl)NC1CCC(C(CCc2ccccc2)N2CCOCC2)CC1` (stereo not drawn) [Example 60, 2-[1-(2,4-dichloro-benzenesulfonyl)-3-oxo-piperazin-2-yl]-N-[4-(1-morpholin-4-yl-3-phenyl-propyl)-cyclohexyl]-acetamide], the inhibition at 10 µM turned out to be 104% in assay [1] and 8% in assay [2]. Further, at human μ-opiate receptor, the inhibition at 1 µM was 54%.

Regarding `CN(C)C(c1ccccc1)C1CCC(NC(=O)CCCCN(C)S(=O)(=O)c2c(Cl)cc(Cl)cc2Cl)CC1` (stereo not drawn) [Example 5, N—(4-((Dimethylamino)(phenyl)methyl)cyclohexyl)-5-(2,4,6-trichloro-N-methylphenylsulfonamido)pentanamide], the inhibition at 10 µM in assay [1] came out at 101%; in assay [2], 60%. Besides, the inhibition at 1 µM on human μ-opiate receptor amounted to 89%.

Take `O=C(CC1C(=O)Nc2ccccc2N1S(=O)(=O)c1ccc(Cl)c(Cl)c1)NC1CCC(C(c2ccccc2)N2CCCC2)CC1` (stereo not drawn) [Example 103, 2-(1-(3,4-dichlorophenylsulfonyl)-3-oxo-1,2,3,4-tetrahydroquinoxalin-2-yl)-N-(4-(phenyl(pyrrolidin-1-yl)methyl)cyclohexyl)acetamide]: the inhibition at 10 µM in assay [1] came out at 103%; in assay [2], 37%. Moreover, the inhibition at 1 µM at human μ-opiate receptor came out at 71%.

As to `CN(C)C(c1ccccc1)C1CCC(CNC(=O)CCCCN(C)S(=O)(=O)c2c(Cl)cc(Cl)cc2Cl)CC1` (stereo not drawn) [Example 7, N—((4-((Dimethylamino)(phenyl)methyl)cyclohexyl)methyl)-5-(2,4,6-trichloro-N -methylphenylsulfonamido)pentanamide], the inhibition at 10 µM in assay [1] was found to be 102%; in assay [2], 59%. The inhibition at 1 µM on human μ-opiate receptor stood at 96%.

For the compound `CN(CCCCC(=O)NC1CCC(C(c2ccccc2)N2CCCCC2)CC1)S(=O)(=O)c1c(Cl)cc(Cl)cc1Cl` (stereo not drawn) [Example 6, N—(4-(Phenyl(piperidin-1-yl)methyl)cyclohexyl)-5-(2,4,6-trichloro-N-methylphenylsulfonamido)pentanamide], the inhibition at 10 µM in assay [1] stood at 75.1%; in assay [2] it was 41%. The inhibition at 1 µM on human μ-opiate receptor was 29%.

As to `O=C(CC1CCCN1S(=O)(=O)c1ccc(Cl)c(Cl)c1)NCC1CCC(C(c2ccccc2)N2CCCC2)CC1` (stereo not drawn) [Example 76, 2-[1-(3,4-dichloro-benzenesulfonyl)-pyrrolidin-2-yl]-N-[4-(phenyl-pyrrolidin-1-ylmethyl)-cyclohexylmethyl]-acetamide], the inhibition at 10 µM in assay [1] came to 80.4%; in assay [2] it was 9%. For the same compound, the inhibition at 1 µM at human μ-opiate receptor came to 84%.

On to “3-(1-(4-chloro-2,5-dimethylphenylsulfonyl)piperidin-2-yl)-1-(4-((4-methyl-piperazin-1-yl)(phenyl)methyl)piperidin-1-yl)propan-1-one [Example 122]”, for which the “B1R antagonism, human [10 μM] % inhibition” value in assay [1] turned out to be 98%. For the same compound, in assay [2], the “B1R antagonism, rat [10 μM] % inhibition” value amounted to 40%. Also, on human μ-opiate receptor, the “μ-Opioid receptor [1 μM] % inhibition” value was 47%.

As for `O=C(CC1CCCCN1S(=O)(=O)c1ccc(Cl)c(Cl)c1)NC1CCC(C(CCc2ccccc2)N2CCOCC2)CC1` (stereo not drawn) [Example 87, 2-[1-(3,4-dichloro-benzenesulfonyl)-piperidin-2-yl]-N-[4-(1-morpholin-4-yl-3-phenyl-propyl)-cyclohexyl]-acetamide], the inhibition at 10 µM in assay [1] amounted to 96.8%; in assay [2], 25%. In addition, the inhibition at 1 µM on human μ-opiate receptor worked out at 38%.

Turning to `CN1CCN(C(c2ccccc2)C2CCC(NC(=O)CC3CCCCN3S(=O)(=O)c3ccc(Cl)c(Cl)c3)CC2)CC1` (stereo not drawn) [Example 88, 2-[1-(3,4-dichloro-benzenesulfonyl)-piperidin-2-yl]-N-{4-[(4-methyl-piperazin-1-yl)-phenyl-methyl]-cyclohexyl}-acetamide], the results for the inhibition at 10 µM in assay [1] and in assay [2] were 101% and 61%, respectively. Besides, at human μ-opiate receptor, the inhibition at 1 µM amounted to 58%.

For `CN1CCN(C(c2ccccc2)C2CCC(NC(=O)CC3C(=O)Nc4ccccc4N3S(=O)(=O)c3ccc(Cl)c(Cl)c3)CC2)CC1` (stereo not drawn) [Example 70, 2-[1-(3,4-dichloro-benzenesulfonyl)-3-oxo-1,2,3,4-tetrahydro-quinoxalin-2-yl]-N-{4-[(4-methyl-piperazin-1-yl)-phenyl-methyl]-cyclohexyl}-acetamide], the results for the inhibition at 10 µM in assay [1] and in assay [2] were 104% and 98%, respectively. Also, the inhibition at 1 µM at human μ-opiate receptor came out at 11%.

Consider `O=C(CC1CCCCN1S(=O)(=O)c1ccc(Cl)c(Cl)c1)NC1CCC(C(c2ccccc2)N2CCCC2)CC1` (stereo not drawn) [Example 107, 2-(1-(3,4-dichlorophenylsulfonyl)piperidin-2-yl)-N-(4-(phenyl(pyrrolidin-1-yl)methyl)cyclohexyl)acetamide], for which the inhibition at 10 µM in assay [1] turned out to be 102%; in assay [2] it was 26%. Moreover, the inhibition at 1 µM on human μ-opiate receptor stood at 78%.
